Test results: article PMC3662054 (Journal of biological inorganic chemistry : JBIC : a …, 2012)

Biological target: T1, 20S proteasome (chymotrypsin-like activity) (Homo sapiens, UniProt P28074)
T1 sequence (P28074 60-263): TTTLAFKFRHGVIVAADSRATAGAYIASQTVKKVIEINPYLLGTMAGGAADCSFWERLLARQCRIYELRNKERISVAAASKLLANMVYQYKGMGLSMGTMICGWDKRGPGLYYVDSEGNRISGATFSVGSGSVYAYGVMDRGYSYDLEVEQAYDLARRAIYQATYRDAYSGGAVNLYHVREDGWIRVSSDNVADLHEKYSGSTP
Assay: fluorogenic Suc-LLVY-AMC hydrolysis by purified […] proteasome
Assay type: biochemical

| Compound | IC50 [µM] |
| --- | --- |
| O=C([O-])Cc1c[nH]c2ccccc12.O=C([O-])Cc1c[nH]c2ccccc12.O=C([O-])Cc1c[nH]c2ccccc12.O=C([O-])Cc1c[nH]c2ccccc12.[Cu+2].[Cu+2] [compound 3, Complex 3] | 3 |
| O=C([O-])CCc1c[nH]c2ccccc12.O=C([O-])CCc1c[nH]c2ccccc12.[Cu+2].c1cnc2c(c1)ccc1cccnc12 [compound 6, Complex 6] | 3.3 |
